Consider 14 compounds from patent publication US6977263B2, “Chemical compounds” (Aventis Pharmaceuticals Inc., priority 2000, dated 2005).

SMILES strings stand for the structures. Where a name gives a salt, the structure may show the parent alone.

A word on the Ki: it is a dissociation constant, usually derived from enzyme kinetics or from competition with a known ligand.

T1 sequence (Q15661 31-275): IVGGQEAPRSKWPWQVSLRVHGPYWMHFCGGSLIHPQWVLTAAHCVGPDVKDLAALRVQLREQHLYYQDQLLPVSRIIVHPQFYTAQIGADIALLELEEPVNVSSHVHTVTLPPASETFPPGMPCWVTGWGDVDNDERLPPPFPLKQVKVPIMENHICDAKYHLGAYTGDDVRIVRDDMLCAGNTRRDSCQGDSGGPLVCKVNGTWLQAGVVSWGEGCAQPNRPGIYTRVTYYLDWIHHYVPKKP

The test addresses T1, recombinant human β tryptase (Homo sapiens, UniProt Q15661).
T1 construct: made in house; host or cells: yeast cells
Put plainly: Tryptase chromogenic enzyme assay (S2366 substrate), Ki determination. The conditions noted are these: room temperature, 0.5 mM S2366 substrate (2×Km), read at 405 nm; Ki=IC50/(1+[Substrate]/Km). It is filed as biochemical. As for the experimental part: Tryptase inhibition activity is confirmed using either isolated human lung tryptase or recombinant human β tryptase expressed in yeast cells. Essentially equivalent results are obtained using isolated native enzyme or the expressed enzyme. The assay procedure employs a 96 well microplate (Costar 3590) using L-pyroglutamyl-L-prolyl-L-arginine-para-nitroanilide (S2366: Quadratech) as substrate (essentially as described by McEuen et. al. Biochem Pharm, 1996, 52, pages 331-340). Assays are performed at room temperature using 0.5 mM substrate (2×Km) and the microplate is read on a microplate reader (Beckman Biomek Plate reader) at 405 nm wavelength. It was determined using the procedure set forth herein.
Materials and Methods for Tryptase Primary Screen (Chromogenic Assay)
S2366 (Stock solutions of 2.5 mM).
Purified recombinant beta Tryptase Stocks of 310 ug/ml.
• Add 60 ul of diluted substrate (final concentration of 500 uM in assay buffer) to each well • Add compound in duplicates, final concentration of 20 uM, volume 20 ul • Add enzyme at a final concentration of 50 ng/ml in a volume of 20 ul • Total volume for each well is 100 ul • Agitate briefly to mix and incubate at room temp in the dark for 30 minutes • Read absorbencies at […]
Each plate has the following controls • Totals: 60 ul of substrate, 20 ul of buffer (with 0.2% final concentration of DMSO), 20 ul of enzyme • Non-specific: 60 ul of substrate, 40 ul of buffer (with 0.2% DMSO) • Totals: 60 ul of substrate, 20 ul of buffer (No DMSO), 20 ul of enzyme • Non-specific: 60 ul of substrate, 40 ul of buffer (No DMSO) Protocol (IC50 and Ki Determination)
The protocol is essentially the same as above except that the compound is added in duplicates at the following final concentrations: 0.01, 0.03, 0.1, 0.3, 1, 3, 10 uM (All dilutions carried out manually). For every assay, whether single point or IC50 determination, a standard compound is used to derive IC50 for comparison. From the IC 50 value, the Ki can be calculated using the following formula: Ki=IC50/(1+[Substrate]/Km).
As for `NCc1cccc(C2CCN(C(=O)c3ccc(CCc4ccccc4)s3)CC2)c1` [Example 13, 3-[1-(5-Phenylethyl-thiophene-2-carbonyl)-piperidin-4-yl]-benzylamine hydrochloride], the Ki turned out to be 50 nM. Regarding `NCc1cccc(C2CCN(C(=O)c3cccc(COc4ccccc4)c3)CC2)c1` [Example 15, 3-[1-(3-Phenoxymethyl-benzoyl)-piperidin-4-yl]-benzylamine hydrochloride], the Ki worked out at 1070 nM.

As for `Cc1ccc(CN)cc1C1CCN(C(=O)c2cncc(CCc3ccccc3)c2)CC1` [Example 18, 4-Methyl-3-[1-(5-phenylethyl-pyridine-3-carbonyl)-piperidin-4-yl]-benzylamine di-hydrochloride], the inhibition constant (Ki) was 69 nM. Under `NCc1cccc(C2CCN(C(=O)c3cccc(-c4nnc(-c5ccccc5)o4)c3)CC2)c1` [Example 19, 3-{1-[3-(5-Phenyl-1,3,4-oxadiazol-2-yl)-phenylcarbonyl]-piperidin-4-yl}-benzylamine hydrochloride] stands 180 nM.

For the compound `N#CC1(c2cccc(CN)c2)CCN(C(=O)c2cncc(CCc3ccccc3)c2)CC1` [Example 35, 4-(3-Aminomethyl-phenyl)-1-(5-phenethyl-pyridine-3-carbonyl)-piperidine-4-carbonitrile], the Ki is 93 nM.

Take `NCc1cccc(C2CCN(C(=O)c3ccc(Cl)c(Cl)c3)CC2)c1` [Example 36, [4-(3-Aminomethylphenyl)piperidin-1-yl]-(3,4-dichlorophenyl)methanone trifluoroacetate]: the inhibitory constant (Ki) worked out at 31 nM. In the case of `NCc1cccc(C2CCN(C(=O)c3ccc(Cl)cc3)CC2)c1` [Example 48, 1-[4-(3-Aminomethyl-phenyl)-piperidin-1-yl]-1-(4-chloro-phenyl)-methanone trifluoroacetate], the inhibitory constant (Ki) amounted to 390 nM. Under `NCc1cccc(C2CCN(C(=O)c3cccc(-c4nnc(-c5ccccc5Cl)o4)c3)CC2)c1` [Example 49, 1-[4-(3-Aminomethyl-phenyl)-piperidin-1-yl]-1-{3-[5-(2-chloro-phenyl)-[1,3,4]oxadiazol-2-yl]-phenyl}-methanone trifluoroacetate] stands 390 nM. The result for `NCc1cccc(C2CCN(C(=O)c3scc4c3CCCC4)CC2)c1` [Example 70, 1-[4-(3-Aminomethyl-phenyl)-piperidin-1-yl]-1-(4,5,6,7-tetrahydro-benzo[c]thiophen-1-yl)-methanone-trifluoroacetate] reads 290 nM; that for `NCc1cccc(C2CCN(C(=O)c3cccc(C#Cc4ccc(F)cc4)c3)CC2)c1` [Example 83, 1-[4-(3-Aminomethyl-phenyl)-piperidin-1-yl]-1-[3-(4-fluoro-phenylethynyl)-phenyl]-methanone trifluoroacetate], 870 nM; that for `NCc1cccc(C2CCN(C(=O)c3cc4sc(Cl)cc4s3)CC2)c1` [Example 92, 1-[4-(3-Aminomethyl-phenyl)-piperidin-1-yl]-1-(5-chloro-thieno[3,2-b]thiophen-2-yl)-methanone trifluoroacetate], 190 nM.

Consider `NCc1cccc(C2CCN(C(=O)c3ccc(CCc4ccccc4)cc3)CC2)c1` [Example 97, 1-[4-(3-Aminomethylphenyl)-piperidin-1-yl]-1-(4-phenylethyl-phenyl)-methanone hydrochloride], for which the inhibitory constant (Ki) is 450 nM. Under `NCc1cccc(C2CCN(C(=O)c3cccc(CCc4ccccc4O)c3)CC2)c1` [Example 98, 1-[4-(3-Aminomethyl-phenyl)-piperidin-1-yl]-1-{3-[2-(2-hydroxy-phenyl)-ethyl]-phenyl}-methanone hydrochloride] stands 180 nM; under `NCc1cc(C2CCN(C(=O)c3cncc(CCc4ccccc4)c3)CC2)cs1` [Example 100, dihydrochloride], 490 nM.
